Measurements: paper PMC4339220 (2014)

Key:
[1] = test system: TGGAGA cognate hairpin (DNA, hairpin) CCTTGGAGAGTTTTCTCTCCAAGG; experiment: UV melting; conditions: 50 mM NaCl; 10 mM HEPES, 1 mM EDTA, pH 7.4; 3 µM hairpin, 3 µM compound
[2] = test system: TGGAGA cognate hairpin (biotinylated) (DNA, hairpin) CCTTGGAGAGTTTTCTCTCCAAGG; experiment: SPR, global kinetic fit; conditions: 50 mM NaCl; 10 mM HEPES, 1 mM EDTA, pH 7.4, 0.05% P20, 25 °C

Compound	ΔTm [1] [°C]	KD [2] [nM]
CN(CCCN)CCCNC(=O)CCNC(=O)c1cc(NC(=O)c2cc(NC(=O)CCNC(=O)c3cc(NC(=O)CCCNC(=O)c4nc(NC(=O)CCNC(=O)c5nc(NC(=O)c6nccn6C)cn5C)cn4C)cn3C)cn2C)cn1C	3.6	18.6 ± 0.8
CN(C)CCCNC(=O)CCNC(=O)c1cc(NC(=O)c2cc(NC(=O)c3cc(NC(=O)c4cc(NC(=O)CCCNC(=O)c5nc(NC(=O)c6cc(NC(=O)c7nc(NC(=O)c8nccn8C)cn7C)cn6C)cn5C)cn4C)cn3C)cn2C)cn1C	7.8	2.5 ± 0.4
CN(C)CCCNC(=O)CCNC(=O)c1cc(NC(=O)CCNC(=O)c2cc(NC(=O)c3cc(NC(=O)CCCNC(=O)c4nc(NC(=O)c5cc(NC(=O)c6nc(NC(=O)c7nccn7C)cn6C)cn5C)cn4C)cn3C)cn2C)cn1C		36.4 ± 0.4
CN(CCCN)CCCNC(=O)CCNC(=O)c1cc(NC(=O)c2cc(NC(=O)c3cc(NC(=O)c4cc(NC(=O)CCCNC(=O)c5nc(NC(=O)c6cc(NC(=O)c7nc(NC(=O)c8nccn8C)cn7C)cn6C)cn5C)cn4C)cn3C)cn2C)cn1C		2.0 ± 0.2
CN(C)CCCNC(=O)CCNC(=O)c1cc(NC(=O)c2cc(NC(=O)c3cc(NC(=O)c4cc(NC(=O)CCCNC(=O)c5nc(NC(=O)CCNC(=O)c6nc(NC(=O)c7nccn7C)cn6C)cn5C)cn4C)cn3C)cn2C)cn1C		12.1 ± 0.4
CN(CCCN)CCCNC(=O)CCNC(=O)c1cc(NC(=O)CCNC(=O)c2cc(NC(=O)c3cc(NC(=O)CCCNC(=O)c4nc(NC(=O)CCNC(=O)c5nc(NC(=O)c6nccn6C)cn5C)cn4C)cn3C)cn2C)cn1C		26.3 ± 2.2
CN(CCCN)CCCNC(=O)CCNC(=O)c1cc(NC(=O)c2cc(NC(=O)CCNC(=O)c3cc(NC(=O)CCCNC(=O)c4nc(NC(=O)c5cc(NC(=O)c6nc(NC(=O)c7nccn7C)cn6C)cn5C)cn4C)cn3C)cn2C)cn1C	8.0	2.6 ± 0.2
